According to patent US9732060B2, “Aminotriazine derivative and pharmaceutical composition comprising the same” (Shionogi & Co., Ltd., priority 2013, dated 2017):

Biological target: Rat P2X3 receptor (Rattus norvegicus (Rat), UniProt P49654)
Test: Evaluation of rat P2X3 receptor inhibitory activity in the presence of rat serum albumin (RSA)
Format: cell-based
Details: read-out: ratP2X3 + RSA IC50
Method: Rat P2X3 receptor gene (GenBank accession number NM_031075) was expressed in C6BU-1 cell. The C6BU-1 cells were seeded in a 96-well micro titer plate at a concentration of 2500 cells/well and cultured in the medium (7.0% fetal bovine serum, 7.0% horse serum, and 1% antibiotic and antifungal in DMEM) for one day at 37° C. under 5% carbon dioxide atmosphere. The plasmid was transfected into the cells using transfection reagent FuGENE6 (Promega). The transfected cells were cultured in the medium for one day at 37° C. under 5% carbon dioxide atmosphere. The medium was replaced with 4 μM Fluo-4-AM solution (pH 7.5) containing 20 mM HEPES, 137 mM NaCl, 5.27 mM KCl, 0.9 mM MgCl2, 1.26 mM CaCl2, 5.6 mM D-glucose, 2.5 mM probenecid, 10% RSA, and 0.08% Pluronic F-127, and incubated at 37° C. under 5% dioxide carbon atmosphere for one hour. The plate was washed with washing buffer (20 mM HEPES, 137 mM NaCl, 5.27 mM KCl, 0.9 mM MgCl2, 1.26 mM CaCl2, 5.6 mM D-glucose, 2.5 mM probenecid, pH 7.5), and each well was added with 40 μL of this buffer. The plate was placed in High-Throughput Screening System FDSS 3000 (Hamamatsu Photonics K.K.). Measurement of fluorescence intensity by FDSS 3000 was started, and 40 μL of DMSO solutions containing 1% RSA (final concentrations) and different concentrations of the test compound as prepared by dilution with dilution buffer (20 mM HEPES, 137 mM NaCl, 5.27 mM KCl, 0.9 mM MgCl2, 1.26 mM CaCl2, 5.6 mM D-glucose, 2.5 mM probenecid, 0.1% Pluronic F-127, pH 7.5) were dispensed to each well through the built-in automatic dispenser. Five minutes after, 50 nM ATP solution (50 μL) prepared by dilution with the dilution buffer was dispensed through the built-in automatic dispenser, and the measurement of fluorescence intensity was continued for 4 min. For each well, the specific maximum fluorescence intensity was calculated as the ratio of the maximum fluorescence intensity after addition of the ATP solution to the fluorescence intensity at the starting of the measurement. […] FDSS software (Hamamatsu Photonics K.K.) was used for calculation of the specific maximum fluorescence intensity. IC50 was calculated using Microsoft Excel (Microsoft Corporation) and XLfit (idbs Ltd.).

Rat P2X3 receptor, sequence (P49654 whole entry): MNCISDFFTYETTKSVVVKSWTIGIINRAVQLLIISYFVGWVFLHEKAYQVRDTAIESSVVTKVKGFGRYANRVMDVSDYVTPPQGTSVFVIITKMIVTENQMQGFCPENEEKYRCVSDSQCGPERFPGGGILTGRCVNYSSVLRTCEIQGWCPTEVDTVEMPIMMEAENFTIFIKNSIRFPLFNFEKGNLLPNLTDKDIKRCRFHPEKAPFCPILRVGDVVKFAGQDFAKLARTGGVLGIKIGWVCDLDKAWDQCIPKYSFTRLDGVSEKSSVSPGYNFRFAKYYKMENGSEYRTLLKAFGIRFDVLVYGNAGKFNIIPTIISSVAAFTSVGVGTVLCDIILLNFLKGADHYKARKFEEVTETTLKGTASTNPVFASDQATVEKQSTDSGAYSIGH

`Cc1ccc(Cn2c(=O)n(C[C@H](C)C(=O)O)c(=O)[nH]/c2=N\c2ccc(Oc3ccc(F)cn3)cc2)cc1` [Compound I-040] showed an IC50 of 9 nM.
